How the values were obtained:
[1] = test system: human neuroblastoma SK-N-MC cells; test: Protection against neuronal death induced by apoptosis (camptothecin), WST-1 test; format: cell-based; details: camptothecin 20 nM, 22 h, at 10 μg/ml, protection at 4, 10 and 40 μg/ml
Experimental: To that end, an assay was performed on human neuroblastoma SK-N-MC cells in culture from the ATCC (HTB-10); in all cases strict rules of sterility were followed and the manipulation was performed in class II biological safety cabinets following European standard EN 12469. The cells were maintained in MEM culture medium supplemented with 1 mM sodium pyruvate, 2 mM L-glutamine, 0.1 mM non-essential amino acids, 0.05 mg/ml gentamicin and 10% fetal bovine serum.
The inhibition caused by the compound (1S,3R,7S,8S,8aR)-1,2,3,7,8,8a-hexahydro-3,7-dimethyl-8-[2-[(2R,4R)-tetrahydro-4-hydroxy-6-oxo-2H-pyran-2-yl]ethyl-1-naphthalenyl 2-methylpropanoate (NST0004) of cell death caused by treatment with camptothecin (Campt), which inhibits the topoisomerase I enzyme by preventing duplication of the DNA, which triggers apoptic cell death, was analyzed. […]
The cells were incubated (at 37° C. and 5% CO2) with these treatments for 22 h, after which time the WST-1 reagent (Roche) was added. […] The metabolically active (live) cells reduce tetrazolium salt to formazan by means of the succinate-tetrazolium reductase system (of the mitochondrial respiratory chain) and the formazan which is formed can be detected colorimetrically since it has an absorbance of 440 nm. The reading was taken in a plate reader at 440 nm 2 hours after adding the reagent. […]

[2] = test system: SK-N-MC cells; test: Inhibition of camptothecin-induced apoptosis by flow cytometry (propidium iodide, sub-G1); format: cell-based, human; details: Homo sapiens, camptothecin 50 μM, 6 h, at 4 μg/ml, read-out: maximum inhibition of apoptosis relating to apoptosis caused by camptothecin (flow cytometry)
Experimental: To that end, the inhibition caused by the NST0005 compound of apoptosis caused by the treatment with camptothecin (Campt) was analyzed. The SK-N-MC cells, not exceeding 15 passages, were seeded on 6-well plates treated for adherent cells with a cell concentration of 8×10^5 cells/well; 2 wells of the plate were seeded for each condition of the assay.
After 24 h of cell incubation at 37° C. and 5% CO2 the cell treatments were performed with 2 ml of total volume for the following conditions: (i), control (culture medium); (ii), camptothecin [50 μM]; (iii) camptothecin [50 μM] and Z-VAD-fmk [50 μM] (Alexis), as positive control of inhibition; and (iv), 50 μM camptothecin with NST0005 at different concentrations [4, 10, 40 and 100 μg/ml].
The cells were incubated (at 37° C. and 5% CO2) with these treatments for 6 h, after which time they were pooled together with their culture medium and centrifuged at 300×g for 5 minutes. The medium was removed, a washing was performed with phosphate buffered saline (PBS) and they were fixed for 2 minutes with 500 μl of 70% ethanol at −20° C. […] After this time, they were analyzed by flow cytometry, comparing the fluorescence of the propidium iodine against the amount of DNA. The percentage of apoptosis was measured on the sub-G1 region of each of the conditions. […]

[3] = test system: cerebral cortex of mice; test: Neuroprotection in the cerebral cortex (lateral entorhinal and amygdaloid nuclei) of mice after kainate; format: in vivo, mice (FVB/NHan); details: KA 25 mg/kg i.p., NST0005 50 mg/kg i.p. daily
Experimental: All the animals included during the experimental process were 12-week old males of the FVB/NHan strain. The experiments were carried out strictly following the Guidance on the Operation of Animals (Scientific Procedures, Act. 1986). The animals had their respective quarantine period and were treated with maximum precaution to minimize possible contaminations for inoculations and handling.
Sixteen animals were used in this assay and the treatments were all carried out by intraperitoneal (i.p.) route with a volume of 100 μl, according to the following regimens: • i) PBS+PBS+PBS regimen: 4 animals were initially treated with PBS with a daily dose for 2 days, on the second day the animals were inoculated with a new dose of PBS and for the next 7 days with a daily dose of PBS. • ii) PBS+KA+PBS regimen: 6 animals were initially treated with PBS with a daily dose for 2 days, on the second day the animals were inoculated with a dose of kainate at 25 mg/kg and for the next 7 days with a daily dose of PBS. • iii) NST0005+KA+NST0005 regimen: 6 animals were initially treated with NST0005 with a daily dose of 50 mg/kg for 2 days, on the second day the animals were inoculated with a dose of kainate at 25 mg/kg and for the next 7 days with a daily dose of NST0005 at 50 mg/kg.
Once the treatment period of 7 days ended, the animals were sacrificed and the brains were dissected. […]

Compound	maximum reduction of the percentage of cell death relating to death caused by Camptothecin [1] [%]	inhibition at 4 µg/mL [2] [%]	neuritic dystrophy in the cerebral cortex (MAP2) [3]	reactive astrogliosis in the cerebral cortex (GFAP) [3]
CC(C)C(=O)O[C@H]1C[C@@H](C)C=C2C=C[C@H](C)[C@H](CC[C@@H]3C[C@@H](O)CC(=O)O3)[C@H]21 [NST0004]	43	–	–	–
C[C@H]1C=C2C=C[C@H](C)[C@H](CC[C@@H]3C[C@@H](O)CC(=O)O3)[C@H]2[C@@H](OC(=O)C(C)(C)C)C1 [NST0005]	–	17	significantly reduces neuronal damage by neuritic dystrophy	significantly prevents reactive astrogliosis

— patent US20110319484A1, “NEUROPROTECTIVE COMPOUNDS” (Parque Tecnologico de Ciencias de la Salud, priority 2009, published 2011)
